Measured values: US20220249463A1, “METHODS OF ALTERING CARDIAC REMODELING USING COMPOUNDS THAT PROMOTE GLUCOSE OXIDATION” (IMBRIA PHARMACEUTICALS, INC., priority 2019, published 2022)

Columns and labels:
Assay type in all cases: in vivo
[1] = test system: TAC mice; experiment: TAC mice: left ventricular pressure with Mikro-tip catheter; conditions: end of 6-week treatment
[2] = test system: TAC mice; experiment: TAC mice, six weeks treatment: heart weight and heart weight/body weight; conditions: 6 weeks
[3] = test system: TAC mice; experiment: TAC mice: cardiac fibrosis, Masson's trichrome; conditions: end of 6-week experiment
[4] = TMZ 6, NA 2.4, CV-8814 7.5, CV-8972 10 mg/kg/day

**Q.** `COc1ccc(CN2CCN(CCOC(=O)c3cccnc3)CC2)c(OC)c1OC` [CV-8972, 2-(4-(2,3,4-trimethoxybenzyl)piperazin-1-yl)ethyl nicotinate] was tested. Which “+dp/dtm” value [1] did it give?
**A.** 4541±395 mm Hg/sec

**Q.** And the “-dp/dtm” value [1]?
**A.** −4126±339 mm Hg/sec

**Q.** And the “left ventricular developed pressure (LVDP)” value [1, 4]?
**A.** 116±9 mm Hg

**Q.** And the “cardiac remodeling in TAC mice (in words)” value [2, 4]?
**A.** effectively inhibited cardiac remodeling

**Q.** What about the cardiac mass ([2]; TAC mice, TMZ 6, CV-8814 7.5, CV-8972 10 mg/kg/day, osmotic minipump) of the same compound?
**A.** 225 ± 11 mg

**Q.** And the “heart weight to body weight ratio” value ([2]; TAC mice, TMZ 6, NA 2.4, CV-8814 7.5, CV-8972 10 mg/kg/day, subcutaneous osmotic minipump)?
**A.** 7.4 ± 0.3 mg/g

**Q.** What about the “cardiac fibrosis (fibrotic area to whole heart tissue area)” value [3] of the same compound?
**A.** 6.6±0.6%
